In PMC11470957, “Principles of paralog-specific targeted protein degradation engaging the C-degron E3 KLHDC2” (Nature Communications, 2024):
pKd: −log10 of the molar value. Where “and” joins values, the source holds several entries; their conditions need not be identical. Equal values may be shown once. Entries after “also recorded” stand apart in the source; their conditions may differ.

Columns and labels:
KLHDC2^SBD / BRD3^BD2 = KLHDC2^SBD / BRD3^BD2 (Homo sapiens, UniProt Q15059+Q9Y2U9); assay: ITC, ternary complex KLHDC2^SBD with PROTAC-BRD3^BD2
Chain of KLHDC2^SBD / BRD3^BD2 (Q9Y2U9 15-361): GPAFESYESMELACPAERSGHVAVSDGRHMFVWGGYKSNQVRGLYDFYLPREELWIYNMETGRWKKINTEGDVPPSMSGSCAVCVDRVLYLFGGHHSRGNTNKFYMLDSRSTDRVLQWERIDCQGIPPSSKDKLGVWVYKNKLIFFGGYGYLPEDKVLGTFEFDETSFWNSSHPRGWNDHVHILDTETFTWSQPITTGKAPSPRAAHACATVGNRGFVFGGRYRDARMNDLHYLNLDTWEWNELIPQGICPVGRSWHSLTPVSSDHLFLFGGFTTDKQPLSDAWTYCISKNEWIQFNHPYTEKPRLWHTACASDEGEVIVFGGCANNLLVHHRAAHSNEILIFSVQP
Chain of KLHDC2^SBD / BRD3^BD2 (Q15059 306-416): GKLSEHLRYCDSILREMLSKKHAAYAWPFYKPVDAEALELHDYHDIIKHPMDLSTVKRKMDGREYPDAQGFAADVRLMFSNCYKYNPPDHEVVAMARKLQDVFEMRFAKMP

[1] = biological target: R112A KLHDC2^SBD / BRD3^BD2 (Homo sapiens, UniProt Q15059+Q9Y2U9, R112A); assay: ITC, ternary complex R112A KLHDC2^SBD with PROTAC-BRD3^BD2
Chain of R112A KLHDC2^SBD / BRD3^BD2 (Q9Y2U9 15-361 R112A): as the sequence (Q9Y2U9 15-361) above, with R98A counted along it
Chain of R112A KLHDC2^SBD / BRD3^BD2 (Q15059 306-416): as the sequence (Q15059 306-416) above

BRD4^BD2 = BRD4^BD2 (Homo sapiens, UniProt O60885); assay: ITC, binary binding to BRD4^BD2
[2] = Measurement of SJ46421 cellular concentration by LC-MS/MS; type: in vitro ADME; settings: SKBR3, from LC-MS-MS of lysates
KLHDC2^SBD / BRD2^BD2 = KLHDC2^SBD / BRD2^BD2 (Homo sapiens, UniProt P25440+Q9Y2U9); assay: ITC, ternary complex KLHDC2^SBD with PROTAC-BRD2^BD2
Chain of KLHDC2^SBD / BRD2^BD2 (Q9Y2U9 15-361): as the sequence (Q9Y2U9 15-361) above
Chain of KLHDC2^SBD / BRD2^BD2 (P25440 344-455): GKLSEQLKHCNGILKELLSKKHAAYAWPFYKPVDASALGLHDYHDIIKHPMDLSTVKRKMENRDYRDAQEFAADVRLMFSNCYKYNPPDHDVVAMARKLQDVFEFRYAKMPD

[3] = test system: CUL2^KLHDC2, CUL2^KLHDC3, CUL2^KLHDC10, CUL5^KLHDC1; assay: SJ46421-dependent BRD^BD2 ubiquitylation by KLHDC-family CRLs (E3 selectivity); settings: Figs 5a, S5a
[4] = cell: PROTAC-BRD3^BD2, syringe: KLHDC2^SBD
[5] = ITC source data Fig4f, N=1, syringe R112A KLHDC2, cell SJ46421-BRD3BD2
[6] = ITC, syringe R112A KLHDC2, cell compound-BRD3BD2, N=1
[7] = cell: SJ46421-BRD3^BD2, syringe: R112A KLHDC2^SBD, n=1
[8] = ITC, syringe BRD4BD2, cell compound, Rep1, Rep2
[9] = cell: SJ46421, syringe: BRD4^BD2
[10] = ITC, syringe KLHDC2, cell BRD2BD2-compound, Rep1, Rep2
[11] = cell: PROTAC-BRD2^BD2, syringe: KLHDC2^SBD

In the case of `Cc1sc2c(c1C)C(c1ccc(Cl)cc1)=N[C@@H](CC(=O)N1CCN(CCOc3cccc4ccc(-c5nc(CC(=O)NCC(=O)O)cs5)cc34)CC1)c1nnc(C)n1-2` [SJ46421], the “ΔG (binary + ternary)” value (KLHDC2^SBD / BRD3^BD2; BRD3^BD2) was -19.9 kcal/mol, the “cooperativity α” value (KLHDC2^SBD / BRD3^BD2; BRD3^BD2, KLHDC2^SBD) was 16 and the “(-)TDS” value (KLHDC2^SBD / BRD3^BD2; ITC, syringe KLHDC2, cell BRD3BD2-compound (printed BRD2BD3 for SJ46421), Rep1, Rep2) was 1.05. For the same compound, the “ITC N (ternary)” value (KLHDC2^SBD / BRD3^BD2; [4]) was 0.9, the “ITC ΔG (ternary)” value (KLHDC2^SBD / BRD3^BD2; [4]) was -10.8 +/- 0.01 kcal/mol-1 and the “ITC ΔH (ternary)” value (KLHDC2^SBD / BRD3^BD2; [4]) was -6.65 +/- 0.79 kcal/mol-1. The pKd [1] was 7.40, the “(-)TDS, Rep1” value [1, 5] was -7.43 and the “DG, Rep1” value [1, 5] was -10.3. For the same compound, the “DH, Rep1” value [1, 5] was -2.9, the “(-)TDS” value [1, 6] was -7.43 and the DG [1, 6] was -10.3. For the same compound, the DH [1, 6] was -2.9, the “cooperativity α” value ([1]; R112A KLHDC2^SBD, estimated from the binding affinity of SJ46421 to WT KLHDC2) was 7.6 and the “ITC -TΔS (ternary)” value [1, 7] was -7.43 kcal/mol-1. For the same compound, the “ITC N (ternary)” value [1, 7] was 0.8, the “ITC ΔG (ternary)” value [1, 7] was -10.3 kcal/mol-1 and the “ITC ΔH (ternary)” value [1, 7] was -2.9 kcal/mol-1. The “(-)TDS” value (BRD4^BD2; [8]) was 1.81 and 1.64, the DH (BRD4^BD2; [8]) was -9.89 and the pKd (BRD4^BD2; Kd, Rep1/Rep2, ITC source data Fig4a, syringe BRD4BD2, cell SJ46421) was 5.97 and 6.02. The “ITC -TΔS” value (BRD4^BD2; [9]) was 1.73 +/- 0.14 kcal/mol-1, the “ITC N” value (BRD4^BD2; [9]) was 0.9 and the cellular permeability [2] was “poor cellular permeability; also recorded: poor permeability properties”. For the same compound, the “ΔG (binary + ternary)” value (KLHDC2^SBD / BRD2^BD2; BRD2^BD2) was -18.4 kcal/mol, the “(-)TDS” value (KLHDC2^SBD / BRD2^BD2; [10]) was 1.18 and 0.97 and the DH (KLHDC2^SBD / BRD2^BD2; [10]) was -10.5. The “ITC -TΔS (ternary)” value (KLHDC2^SBD / BRD2^BD2; [11]) was 1.08 +/- 0.19 kcal/mol-1, the “ITC N (ternary)” value (KLHDC2^SBD / BRD2^BD2; [11]) was 0.9 and the “ITC ΔG (ternary)” value (KLHDC2^SBD / BRD2^BD2; [11]) was -9.33 +/- 0.05 kcal/mol-1. For the same compound, the “ITC ΔH (ternary)” value (KLHDC2^SBD / BRD2^BD2; [11]) was -10.4 +/- 0.10 kcal/mol-1 and the “SJ46421-dependent ubiquitylation by KLHDC3, KLHDC10, and KLHDC1” value [3] was “poor”.
